Test results taken from the supplement of paper PMC13380429.

What was measured:
Calu-3 [1] = test: relative viability EC50 (midpoint between 100% and the lowest measured viability); higher = less toxic; details: 72 h
Caco-2 [2] = test: as above; details: 72 h
U2OS [3] = test: as above; details: 72 h
Vero E6 [4] = test: as above; details: 72 h
Calu-3 [5] = test: cell viability relative to DMSO; higher = less toxic; details: 72 h
Caco-2 [6] = test: as above; details: 72 h
U2OS [7] = test: as above; details: 72 h
HepG2 [8] = test: as above; details: 72 h
Vero E6 [9] = test: as above; details: 72 h
[10] = system: A549-ACE2 infected with SARS-CoV-2; test: cell count relative to DMSO; higher = less toxic; details: 24 h
[11] = system: A549-ACE2 infected with SARS-CoV-2; test: SARS-CoV-2 infection rate relative to DMSO; higher = more infection; details: 24 h
[12] = system: A549-ACE2 infected with SARS-CoV-2; test: morphology score (similarity to uninfected cells); higher = more like uninfected cells; details: 24 h
A549-ACE2 [13] = test: drug-induced phospholipidosis relative to tamoxifen; higher = more phospholipidosis
Calu-3 [14] = test: drug sensitivity score (DSS) for viability; higher = more toxic; extreme values may be limits of the assay; details: 72 h
Caco-2 [15] = test: as above; details: 72 h
U2OS [16] = test: as above; details: 72 h
HepG2 [17] = test: as above; details: 72 h
Vero E6 [18] = test: as above; details: 72 h
HepG2 [19] = test: relative viability EC50 (midpoint between 100% and the lowest measured viability); higher = less toxic; details: 72 h
A549-ACE2 [20] = test: phospholipidosis EC50; higher = less potent phospholipidosis inducer

CC(=O)c1cc([N+](=O)[O-])c(Sc2ccc(F)cc2F)s1
Details | drug sensitivity score | relative viability EC50 [µM]
Caco-2 [2] | – | 1.81
Caco-2 [15] | 5.8 | –
Calu-3 [1] | – | > 10
Calu-3 [14] | 0 | –
HepG2 [17] | 2.1 | –
U2OS [3] | – | > 10
U2OS [16] | 0.5 | –
Vero E6 [4] | – | > 10
Vero E6 [18] | 0 | –

Details | SARS-CoV-2 infection rate, [11] [%] | cell count, [10] [%] | cell viability, Caco-2 [6] [%] | cell viability, Calu-3 [5] [%] | cell viability, HepG2 [8] [%] | cell viability, U2OS [7] [%] | cell viability, Vero E6 [9] [%] | morphology score, [12]
1 nM | – | – | 98 | 91 | 110 | 95.3 | 108 | –
10 nM | – | – | 96.6 | 95.3 | 105 | 99.3 | 98.8 | –
100 nM | – | – | 103 | 105 | 106 | 95.2 | 101 | –
0.3 µM | 98 | 99 | – | – | – | – | – | 0.06
1000 nM | – | – | 87.4 | 98.6 | 100 | 101 | 98.1 | –
3 µM | 106 | 100 | – | – | – | – | – | -0.18
10000 nM | – | – | 31.8 | 101 | 58.5 | 80 | 95.6 | –
10 µM | 71 | 81 | – | – | – | – | – | 0.38
30 µM | 55 | 58 | – | – | – | – | – | 0.17

drug-induced phospholipidosis [%], A549-ACE2 [13]
Details | 0.3 µM | 0.833333 µM | 3.33333 µM | 6.66667 µM | 30 µM
24 h | 3.19 | -2.16 | 10.1 | 11.8 | 19.3
48 h | 2.73 | -1.61 | 2.36 | 16.5 | –
72 h | 0.714 | -1.68 | -2.13 | 11.8 | 23.5

CC(C)c1ccc(C(=O)c2cccs2)c(SCCCCCCCCN(C)C)n1
Details | drug sensitivity score | relative viability EC50 [µM]
Caco-2 [2] | – | 2.32
Caco-2 [15] | 3.7 | –
Calu-3 [1] | – | 3.55
Calu-3 [14] | 3.6 | –
HepG2 [17] | 3.6 | –
HepG2 [19] | – | 3.39
U2OS [16] | 1.3 | –
Vero E6 [4] | – | > 10
Vero E6 [18] | 1.4 | –

Details | SARS-CoV-2 infection rate [%] | cell count [%] | cell viability [%] | morphology score | phospholipidosis EC50 [µM]
A549-ACE2 [20], 24 h | – | – | – | – | 2.88
A549-ACE2 [20], 48 h | – | – | – | – | 2.9
A549-ACE2 [20], 72 h | – | – | – | – | 4.11
Caco-2 [6], 1 nM | – | – | 106 | – | –
Caco-2 [6], 10 nM | – | – | 91.6 | – | –
Caco-2 [6], 100 nM | – | – | 97.6 | – | –
Caco-2 [6], 1000 nM | – | – | 94.6 | – | –
Caco-2 [6], 10000 nM | – | – | 47.3 | – | –
Calu-3 [5], 1 nM | – | – | 101 | – | –
Calu-3 [5], 10 nM | – | – | 120 | – | –
Calu-3 [5], 100 nM | – | – | 97.4 | – | –
Calu-3 [5], 1000 nM | – | – | 106 | – | –
Calu-3 [5], 10000 nM | – | – | 27.9 | – | –
HepG2 [8], 1 nM | – | – | 97.9 | – | –
HepG2 [8], 10 nM | – | – | 94.6 | – | –
HepG2 [8], 100 nM | – | – | 109 | – | –
HepG2 [8], 1000 nM | – | – | 103 | – | –
HepG2 [8], 10000 nM | – | – | 29.4 | – | –
U2OS [7], 1 nM | – | – | 99.4 | – | –
U2OS [7], 10 nM | – | – | 95.9 | – | –
U2OS [7], 100 nM | – | – | 101 | – | –
U2OS [7], 1000 nM | – | – | 98.9 | – | –
U2OS [7], 10000 nM | – | – | 71.6 | – | –
Vero E6 [9], 1 nM | – | – | 100 | – | –
Vero E6 [9], 10 nM | – | – | 99.8 | – | –
Vero E6 [9], 100 nM | – | – | 101 | – | –
Vero E6 [9], 1000 nM | – | – | 94.6 | – | –
Vero E6 [9], 10000 nM | – | – | 78.4 | – | –
[10], 0.1 µM | – | 98 | – | – | –
[10], 0.3 µM | – | 101 | – | – | –
[10], 1 µM | – | 111 | – | – | –
[10], 3 µM | – | 123 | – | – | –
[11], 0.1 µM | 99 | – | – | – | –
[11], 0.3 µM | 95 | – | – | – | –
[11], 1 µM | 74 | – | – | – | –
[11], 3 µM | 23 | – | – | – | –
[12], 0.1 µM | – | – | – | -0.04 | –
[12], 0.3 µM | – | – | – | 0.17 | –
[12], 1 µM | – | – | – | 0.57 | –
[12], 3 µM | – | – | – | 0.88 | –

drug-induced phospholipidosis [%], A549-ACE2 [13]
Details | 0.3 µM | 0.833333 µM | 3.33333 µM | 6.66667 µM | 10 µM | 30 µM
24 h | 6.35 | 10.2 | 76.1 | 105 | 129 | 33.4
48 h | 4.72 | 6.5 | 79.5 | 112 | 127 | –
72 h | 0.841 | 8.09 | 57.5 | 114 | 131 | –
